Where “and” joins values, the source holds several entries; their conditions need not be identical. Equal entries are not always repeated.
Assays:
4T1 cells = assay: In vitro survival assay (WST-1); format: cell-based, murine; settings: 24 hours, 0 to 50 μM
Description: 4T1 (CRL-2539, murine breast tumor cells) and CT26 (CRL-2638, murine colorectal adenocarcinoma) were purchased from ATCC. Both tumor cell lines were grown in McCoy's 5A supplemented with 10% Fetal Bovine Serum at 37° C., 5% CO2.
MDSCs and CD8^+ T cells were plated on 96-well plate at 2×10^6 cells/ml in RPMI1640 medium supplemented with 10% FBS. CD8^+ T cell cultures were supplemented with recombinant interleukin-2 (Invitrogen Life Technologies) at 2000 U/ml. 4T1 cells in McCoy 5A supplemented with 10% FBS were plated on 96-well plate and cultured until they reached >70% confluency. Cells were cultured with entinostat, 5-azacytidine, or J32 at concentrations ranging from 0 μM to 50 μM for 24 hours at 37° C., 5% CO2. The proportion of viable cells was assessed by incubating the cells with 10% (v/v) Cell Proliferation Reagent WST-1 (Roche Applied Science) for 3 hours at 37° C. and measuring OD450 absorbance of the resulting formazan products.

[1] = mouse, in vivo
Description: Body weight measurements. BALB/c mice bearing 4T1 tumors were treated with indicated therapeutic modalities. Their body weights were measured and recorded regularly after treatments. Means and standard deviations of data are shown.
Six to eight weeks old female BALB/C mice (Harlan Laboratories) were used for all animal experiments. 5×10^6 4 T1 tumor cells or 5×10^6 CT26 tumor cells were inoculated subcutaneously into the right flank of each mouse. Tumors were allowed to grow for 11 days prior to randomization and treatment. CT26 bearing mice were given 10 mg/kg of anti-PD-1 and/or anti-CTLA-4 antibodies intraperitoneally on day 11, 13, 15, 17, 20, 23 and 26 post-tumor implantations and 4T1 bearing mice were given 10 mg/kg anti-PD-1 and/or anti-CTLA-4 antibodies intraperitoneally on day 11, 13, 15, and 17 post-tumor implantations. 4T1 tumor bearing mice were given a single dose of 10 mg/kg anti-CD25 antibody or 10 mg/kg anti-Ly6G antibody intraperitoneally on day 12 post-tumor implantation for cell depletion studies. All antibodies were diluted to appropriate concentrations in 100 μl sterile PBS, pH 7.4 (Invitrogen Life Technologies). […] 4T1 bearing mice were injected intraperitoneally on day 12, 14, 16, and 18. […] Tumor volume was calculated as length×width×0.5.

G-MDSCs [2] = assay: Flow cytometry of G-MDSCs in 4T1 tumor-bearing mice; format: in vivo, BALB/c mice; settings: added to / in combination with PD-1/CTLA-4 inhibition
Text: The following antibodies and reagents were used for flow cytometry: CD16/32 (BD Biosciences), CD3e Alexa Fluor 488 (14-C11; BD Biosciences), CD4 Brilliant Violet 421 (GK1.5, BD Biosciences), CD8a PerCP-Cy5.5 (53-6.7, BD Biosciences), CD25 PE (PC61, BD Biosciences), Foxp3 Alexa Fluor 647 (MF23, BD Biosciences), CD11b Alexa Fluor 700 (M1/70, BD Biosciences), I-A/I-E Alexa Fluor 488 (M5/114.15.2, BD Biosciences), Ly-6C PerCP-Cy5.5 (AL-21, BD Biosciences), CD11c PE (HL3, BD Biosciences), F4/80 APC (BM8, Biolegend), Ly-6G Pacific Blue (1A8, Biolegend), CD45 Pacific Orange (30-F11, Invitrogen Life Technologies), and Live/Dead Fixable Near IR Dead Cell Stain (Invitrogen Life Technologies). Flow cytometry was performed with LSR II (BD Biosciences) and the data was analyzed with FACS Diva software (BD Biosciences). To assess the level of circulating G-MDSC population, blood samples were collected from the mice 7 days after the initiation of the anti-PD-1/anti-CTLA-4 antibody treatments with or without 5-AZA/Entinostat. […] CD8^+ T cell level was assessed using previously established phenotypic criteria of CD45^+CD3^+CD8^+ and total CD45^+CD3^+ cells was used as a common denominator. Treg cell level was assessed using previously established phenotypic criteria of CD45^+CD3^+CD4^+CD25^+FoxP3^+ and total CD45^+CD3^+CD4^+ cells were used as a common denominator.

[3] = tested on: IFN-γ secretion in co-cultures of G-MDSCs and CD8+ T cells; assay: IFN-γ assay in G-MDSC / CD8+ T cell co-cultures (ELISA); format: cell-based, mouse; settings: G-MDSC to CD8+ T cell ratio 1:1, 24 hours, 0 to 0.25 μM
Description: Freshly isolated MDSCs and CD8^+ T cells from 4T1 tumor-bearing animals were cultured at MDSC to CD8^+ T cell ratios of 5:1, 2:1, 1:1, 1:2, and 1:5 in presence of recombinant IL-2 (Invitrogen Life Technologies) at 2000 U/mL and CD3/CD28 antibody coated beads (Miltenyi). MDSC and CD8^+ T cells were cultured at 1:1 ratio with entinostat at concentrations ranging from 0 μM to 0.25 μM. Cell-free supernatants were collected after 24-hour incubation at 37° C. and IFN-γ levels were assayed using Mouse IFN-γ DuoSet Elisa Development Kit (R&D Systems) according to the manufacturer's instruction.

G-MDSCs [4] = assay: In vitro survival assay (WST-1); format: cell-based, mouse; settings: 24 hours, 0 to 50 μM
Description: (§2) MDSCs from 4T1 tumor-bearing animals were isolated from spleens using Myeloid-Derived Suppressor Cell Isolation Kit, mouse (Miltenyi Biotec) and BD FACS Aria III cell sorter (BD Biosciences). CD8^+ cells were isolated from spleens of 4T1-bearing animals treated with anti-PD-1 and anti-CTLA-4 antibodies using CD8a^+ T Cell Isolation Kit II, mouse (Miltenyi Biotec) and BD FACS Aria III cell sorter (BD Biosciences). MDSC, Tregs, and CD8^+ T cells were isolated and cultured by following the manufacturer's protocols and published protocols (38, 39). The purity of G-MDSCs (CD11b^+Ly6G^+Ly6C^loF4/80^−MHC-II^−) and CD8^+ (CD3^+CD8^+) populations were greater than 95% as determined by flow cytometry, and the viability was greater than 95% for these populations as determined by trypan blue staining.
(§3) MDSCs and CD8^+ T cells were plated on 96-well plate at 2×10^6 cells/ml in RPMI1640 medium supplemented with 10% FBS. CD8^+ T cell cultures were supplemented with recombinant interleukin-2 (Invitrogen Life Technologies) at 2000 U/ml. […] The proportion of viable cells was assessed by incubating the cells with 10% (v/v) Cell Proliferation Reagent WST-1 (Roche Applied Science) for 3 hours at 37° C. and measuring OD450 absorbance of the resulting formazan products.

CD8+ T cells = assay: In vitro survival assay (WST-1); format: cell-based, mouse; settings: 24 hours, 0 to 50 μM
Description: as §2, §3

4T1 tumors = assay: 4T1 primary tumors and metastatic lesions (metastasis analysis); format: in vivo, BALB/c mice; settings: for metastases (in words) / primary tumors (in words): 4T1, sacrificed six weeks after tumor implantation; for Liver Mets / Lung Mets / Primary Tumor Vol (mm^3) / Spleen Mets: six weeks after tumor implantation
Description: Tumor volume was calculated as length×width×0.5.
On day 46 post-tumor implantations, 4T1 tumor bearing mice were euthanized according to the IACUC guidelines. Lungs, livers and spleens were harvested and fixed in 10% Neutral Buffered Formalin Solution (Sigma-Aldrich) and metastatic nodules were counted from at least three mice per group.

[5] = tested on: MHC-I, B2M and TAP1 genes in CT26 cells; assay: RT-PCR of genes involved in MHC-I presentation; format: cell-based, murine; settings: CT26 cells cultured in vitro
Description: (§1) 5×10^6 CT26 or 4T1 cells were resuspended in 0.75 ml Trizol LS Reagent (Invitrogen Life Technologies) and 0.25 ml chloroform (Sigma-Aldrich). Samples were vortexed for 15 seconds and incubated for 10 minutes at 20° C. […] Samples were centrifuged at 12000 g for 10 minutes at 4° C. after 10 minute incubation at 20° C. The resulting pellets were air dried for less than 10 minutes and were resuspended with RNAse-free water (Invitrogen Life Technologies) for a final concentration of 500 ng/μl. PCR was performed using SuperScript III One-Step RT-PCR System with Platinum Taq DNA Polymerase (Invitrogen Life Technologies). Annealing temperature was set at 55° C. for H-2D(d), β2m and TAP1, and set at 60° C. for β-actin. […] The following […] used for RT-PCR: H-2D(d) Forward [NT] (SEQ ID NO: 1), H-2D(d) Reverse [NT] ID NO: 2), β2m Forward [NT] ID NO: 3), β2m Reverse [NT] ID NO: 4), TAP1 Forward [NT] ID NO: 5), TAP1 Reverse [NT] ID NO: 6), β-actin Forward [NT] ID NO: 7), β-actin Reverse [NT] ID NO: 8).

[6] = tested on: MHC-I, B2M and TAP1 genes in 4T1 cells; assay: RT-PCR of genes involved in MHC-I presentation; format: cell-based, murine; settings: 4T1 cells cultured in vitro
Description: as §1

[7] = individual mouse, listed as ENT

Row | Structure (SMILES) | cell viability (4T1 cells) | cell viability (G-MDSCs [4]) | metastases (in words) (4T1 tumors) | primary tumors (in words) (4T1 tumors) | Liver Mets (4T1 tumors; AVERAGE of group) | Lung Mets (4T1 tumors; AVERAGE of group) | Primary Tumor Vol (mm^3) (4T1 tumors; AVERAGE of group) | Spleen Mets (4T1 tumors; AVERAGE of group) | expression of MHC-I, B2M and TAP1 genes [5] | expression of MHC-I, B2M and TAP1 genes [6] | other results
1 | Nc1ccccc1NC(=O)c1ccc(CNC(=O)OCc2cccnc2)cc1 [entinostat] | unresponsive | markedly reduced viability | unable to eradicate either primary tumor or metastasis | unable to eradicate either primary tumor or metastasis | 4 | 17 | 3483 mm^3 | 1 | did not significantly increase the expression | did not significantly increase the expression | toxicity as indicated by body weight changes [1]: Temporary self-limiting toxicity; number of circulating G-MDSCs (G-MDSCs [2]): striking reduction in the number of circulating G-MDSCs; IFN-γ secretion inhibited by G-MDSCs [3]: reversed the inhibition in a dose-dependent manner; cell viability (CD8+ T cells): only modest effects; Liver Mets (4T1 tumors; [7]): 10 and 3 and 0 (2×) and 6; Lung Mets (4T1 tumors; [7]): 25 and 20 (2×) and 0 and 22; Primary Tumor Vol (mm^3) (4T1 tumors; [7]): 3005 mm^3 and 5038 mm^3 and 2275 mm^3 and 3063 mm^3 and 4032 mm^3; Spleen Mets (4T1 tumors; [7]): 1 and 0 (3×) and 3
2 | Nc1ncn([C@@H]2O[C@H](CO)[C@@H](O)[C@H]2O)c(=O)n1 [AZA, 5-azacytidine] | unresponsive | no effect at comparable concentrations | unable to eradicate either primary tumor or metastasis | unable to eradicate either primary tumor or metastasis | 12 | 17 | 2750 mm^3 | 1 | did not significantly increase the expression | did not significantly increase the expression | Liver Mets (4T1 tumors; individual mouse): 0 (3×) and 43 and 16; Lung Mets (4T1 tumors; individual mouse): 20 (2×) and 16 and 17 and 14; Primary Tumor Vol (mm^3) (4T1 tumors; individual mouse): 2345 mm^3 and 2454 mm^3 and 2477 mm^3 and 4358 mm^3 and 2117 mm^3; Spleen Mets (4T1 tumors; individual mouse): 0 (3×) and 3 and 1
